Test: method code SF-CR, from PMID: 5159517

- logP: 0.41
Compound: COc1cnc(NS(=O)(=O)c2ccc(N)cc2)nc1

— the SangsterLogP compilation
